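Assay format: 96-well plates, 48-hour exposure. TGI: total growth inhibition.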
Columns and labels:
Assay in all cases: NCI anticancer screen, dose series, 48 h
[1] = tested on: COLO 205 colon
[2] = tested on: HCC-2998 colon
[3] = tested on: HL-60(TB) leukemia
[4] = tested on: HOP-18 NSCLC
[5] = tested on: HOP-62 NSCLC
[6] = tested on: IGROV1 ovarian
[7] = tested on: M14 melanoma
[8] = tested on: MOLT-4 leukemia
[9] = tested on: NCI-H23 lung
[10] = tested on: NCI-H460 lung
[11] = tested on: OVCAR-5 ovarian
[12] = tested on: RPMI-8226 leukemia
[13] = tested on: RXF 393 renal
[14] = tested on: SK-MEL-2 melanoma
[15] = tested on: SN12C renal
[16] = tested on: SNB-75 CNS
[17] = tested on: SR leukemia
[18] = tested on: SW-620 colon
[19] = tested on: U251 CNS
[20] = tested on: UACC-257 melanoma

COc1ccc(-n2cnnc2-c2nsc3ccccc23)cc1
TGI [1]: > 100 µM | TGI [2]: > 100 µM | TGI [3]: > 100 µM | TGI [4]: > 100 µM | TGI [5]: > 100 µM | TGI [6]: > 100 µM | TGI [7]: > 100 µM | TGI [8]: > 100 µM | TGI [9]: > 100 µM | TGI [10]: > 100 µM | TGI [11]: > 100 µM | TGI [12]: > 100 µM | TGI [13]: 65.8 µM | TGI [14]: > 100 µM | TGI [15]: > 100 µM | TGI [16]: 59.2 µM | TGI [17]: > 100 µM | TGI [18]: > 100 µM | TGI [19]: > 100 µM | TGI [20]: > 100 µM

From PubChem BioAssay (NCI)
